Measurements as given in patent US9790209B2, “Kinase inhibitors” (Respivert Limited, priority 2012, dated 2017).

Legend:
[1] = tested on: intestinal mucosa biopsies from the inflamed regions of the colon of ulcerative colitis patients; experiment: Human biopsy assay (ex-vivo cytokine release); assay type: cell-based; settings: 1 μg/mL, 24 hours; for Cytokine (IL-1β, IL-6 and IL-8) release compared to the DMSO control: biopsies from ulcerative colitis patients; for IL-1β release from biopsies of UC patients / IL-6 release from biopsies of UC patients / IL-8 release from biopsies of UC patients: relative to DMSO control = 100%
Protocol: Intestinal mucosa biopsies are obtained from the inflamed regions of the colon of IBD patients. The biopsy material is cut into small pieces (2-3 mm) and placed on steel grids in an organ culture chamber at 37° C. in a 5% CO2/95% O2 atmosphere in serum-free media. DMSO control or test compounds at the desired concentration are added to the tissue and incubated for 24 hr in the organ culture chamber. The supernatant is harvested for determination of IL-6, IL-8, IL-1P and TNFα levels by R&D ELISA.
Percentage inhibition of cytokine release by the test compounds is calculated relative to the cytokine release determined for the DMSO control (100%).

c-Src = c-Src (Homo sapiens (Human), UniProt P12931); experiment: c-Src enzyme inhibition, Z-LYTE FRET; assay type: biochemical
Sequence of c-Src (P12931 whole entry, looked up): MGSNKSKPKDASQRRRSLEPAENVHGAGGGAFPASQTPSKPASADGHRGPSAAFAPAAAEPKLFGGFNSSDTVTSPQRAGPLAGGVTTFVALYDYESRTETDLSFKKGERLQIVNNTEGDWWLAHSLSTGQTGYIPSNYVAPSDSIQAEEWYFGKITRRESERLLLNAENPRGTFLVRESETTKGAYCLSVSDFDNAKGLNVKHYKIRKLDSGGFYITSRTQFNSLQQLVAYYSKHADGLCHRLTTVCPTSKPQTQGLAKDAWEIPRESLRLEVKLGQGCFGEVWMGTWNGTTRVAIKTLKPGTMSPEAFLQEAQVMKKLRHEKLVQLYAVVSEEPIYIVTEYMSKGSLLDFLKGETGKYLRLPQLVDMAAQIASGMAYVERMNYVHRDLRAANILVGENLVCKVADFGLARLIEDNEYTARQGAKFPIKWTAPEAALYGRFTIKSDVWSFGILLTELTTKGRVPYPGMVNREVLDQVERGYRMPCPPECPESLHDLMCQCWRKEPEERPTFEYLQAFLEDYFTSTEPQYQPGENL
Protocol: (§1) The enzyme inhibitory activities of compounds disclosed herein are determined by FRET using synthetic peptides labelled with both donor and acceptor fluorophores (Z-LYTE, Invitrogen Ltd., Paisley, UK).
(§2) The inhibitory activities of compounds of the invention against c-Src and Syk enzymes (Invitrogen), are evaluated in a similar fashion to that described hereinabove. The relevant enzyme (3000 ng/mL or 2000 ng/mL respectively, 2.5 μL) is incubated with the test compound (either 4 μg/mL, 0.4 μg/mL, 0.04 μg/mL, or 0.004 μg/mL, 2.5 μL each) for 2 hr at RT. The FRET peptides (8 μM. 2.5 μL), and appropriate ATP solutions (2.5 μL, 800 μM for c-Src, and 60 μM ATP for Syk) are then added to the enzymes/compound mixtures and incubated for 1 hr. Development reagent (protease, 5 μL) is added for 1 hr prior to detection in a fluorescence microplate reader (Varioskan® Flash, ThermoFisher Scientific).
(§3) In all cases, the site-specific protease cleaves non-phosphorylated peptide only and eliminates the FRET signal. Phosphorylation levels of each reaction are calculated using the ratio of coumarin emission (donor) over fluorescein emission (acceptor), for which high ratios indicate high phosphorylation and low ratios indicate low phosphorylation levels. The percentage inhibition of each reaction is calculated relative to non-inhibited control and the 50% inhibitory concentration (IC50 value) is then calculated from the concentration-response curve.

Syk = Syk (Homo sapiens (Human), UniProt P43405); experiment: Syk enzyme inhibition, Z-LYTE FRET; assay type: biochemical
Protocol: as §1, §2, §3

IC50 (c-Src) [nM]	IC50 (Syk) [nM]	SMILES	Cytokine (IL-1β, IL-6 and IL-8) release compared to the DMSO control [1]	IL-1β release from biopsies of UC patients [1] [%]	IL-6 release from biopsies of UC patients [1] [%]	IL-8 release from biopsies of UC patients [1] [%]
16	61	C#CC(C)(C)c1cc(NC(=O)Nc2ccc(Oc3ccnc(Nc4cc(OC)cc(OCCOCCOCCOC)c4)n3)c3ccccc23)n(-c2ccc(C)cc2)n1 [Example 13, 1-(4-((2-((3-Methoxy-5-(2-(2-(2-methoxyethoxy)ethoxy)ethoxy)phenyl)amino)pyrimidin-4-yl)oxy)naphthalen-1-yl)-3-(3-(2-methylbut-3-yn-2-yl)-1-(p-tolyl)-1H-pyrazol-5-yl)urea]	significantly inhibited	3 ± 3	37 ± 52	7 ± 8
24	50	C#CC(C)(C)c1cc(NC(=O)Nc2ccc(Oc3ccnc(Nc4cc(C)c5[nH]ncc5c4)n3)c3ccccc23)n(-c2ccc(C)cc2)n1 [Example 2, 1-(4-((2-((7-Methyl-1H-indazol-5-yl)amino)pyrimidin-4-yl)oxy)naphthalen-1-yl)-3-(3-(2-methylbut-3-yn-2-yl)-1-(p-tolyl)-1H-pyrazol-5-yl)urea]	significantly inhibited	20 ± 13	37 ± 41	22 ± 21
